Data from the NIST ThermoML archive (doi:10.1016/j.jct.2008.08.007).

Assay: molar heat capacity at constant pressure
Conditions: 101.33 kPa, Crystal

O=C(CO)[C@@H](O)[C@H](O)[C@H](O)CO [D-fructose]
Small sample (50 mg) DSC
Conditions	molar heat capacity at constant pressure [J/K/mol]
288.15 K	220.3
293.15 K	223.6
298.15 K	227.7
303.15 K	233.3
308.15 K	236.9
313.15 K	242.4
318.15 K	247.3
323.15 K	251.5
328.15 K	251.8
333.15 K	255.1
338.15 K	259.6
343.15 K	260.9
348.15 K	266.4
353.15 K	275.3
358.15 K	290.4

O[C@@H]1[C@@H](O)[C@@H](O)OC[C@H]1O [xylopyranose, α-D-]
Vacuum adiabatic calorimetry
Conditions	molar heat capacity at constant pressure [J/K/mol]
288.15 K	178.3
293.15 K	180.9
298.15 K	180.4
303.15 K	182.8
308.15 K	185.7
313.15 K	185.8
318.15 K	187.3
323.15 K	190.4
328.15 K	192
333.15 K	192.6
338.15 K	195.7
343.15 K	200
348.15 K	204.6
353.15 K	209.4
358.15 K	213.8

O=C[C@H](O)[C@@H](O)[C@@H](O)[C@H](O)CO [(+)-galactose]
Small sample (50 mg) DSC
Conditions	molar heat capacity at constant pressure [J/K/mol]
288.15 K	203.3
293.15 K	210.7
298.15 K	213.7
303.15 K	217.5
308.15 K	222.3
313.15 K	227.1
318.15 K	229.4
323.15 K	235.6
328.15 K	236.8
333.15 K	242.8
338.15 K	247
343.15 K	251.2
348.15 K	254.7
353.15 K	257.5
358.15 K	265.1

OC[C@H]1O[C@@H]2O[C@H]3[C@H](O)[C@@H](O)[C@@H](O[C@H]4[C@H](O)[C@@H](O)[C@@H](O[C@H]5[C@H](O)[C@@H](O)[C@@H](O[C@H]6[C@H](O)[C@@H](O)[C@@H](O[C@H]7[C@H](O)[C@@H](O)[C@@H](O[C@H]1[C@H](O)[C@H]2O)O[C@@H]7CO)O[C@@H]6CO)O[C@@H]5CO)O[C@@H]4CO)O[C@@H]3CO [α-cyclodextrin]
Small sample (50 mg) DSC
Conditions	molar heat capacity at constant pressure [J/K/mol]
288.15 K	1074.6
293.15 K	1113.2
298.15 K	1150
303.15 K	1164.1
308.15 K	1201.5
313.15 K	1212.6
318.15 K	1230.2
323.15 K	1259.3
328.15 K	1282.6
333.15 K	1305.3
338.15 K	1335.3
343.15 K	1364.6
348.15 K	1401.6
353.15 K	1442.6
358.15 K	1502.7

OC[C@H]1O[C@@H]2O[C@H]3[C@H](O)[C@@H](O)[C@@H](O[C@H]4[C@H](O)[C@@H](O)[C@@H](O[C@H]5[C@H](O)[C@@H](O)[C@@H](O[C@H]6[C@H](O)[C@@H](O)[C@@H](O[C@H]7[C@H](O)[C@@H](O)[C@@H](O[C@H]8[C@H](O)[C@@H](O)[C@@H](O[C@H]1[C@H](O)[C@H]2O)O[C@@H]8CO)O[C@@H]7CO)O[C@@H]6CO)O[C@@H]5CO)O[C@@H]4CO)O[C@@H]3CO [β-cyclodextrin]
Small sample (50 mg) DSC
Conditions	molar heat capacity at constant pressure [J/K/mol]
288.15 K	1253.4
293.15 K	1298.3
298.15 K	1341.3
303.15 K	1357.6
308.15 K	1401.3
313.15 K	1414.1
318.15 K	1434.7
323.15 K	1468.5
328.15 K	1495.7
333.15 K	1522.1
338.15 K	1557.1
343.15 K	1591.3
348.15 K	1634.4
353.15 K	1682.1
358.15 K	1752.1

OC[C@H]1O[C@@](CO)(O[C@H]2O[C@H](CO)[C@@H](O)[C@H](O)[C@H]2O)[C@@H](O)[C@@H]1O [D-sucrose]
Small sample (50 mg) DSC
Conditions	molar heat capacity at constant pressure [J/K/mol]
288.15 K	408.5
293.15 K	416.6
298.15 K	424.3
303.15 K	429.4
308.15 K	437.5
313.15 K	445.5
318.15 K	451
323.15 K	466.2
328.15 K	472.6
333.15 K	482.5
338.15 K	490.3
343.15 K	498.8
348.15 K	506.7
353.15 K	513.9
358.15 K	522

OC[C@H]1O[C@@H](O[C@H]2[C@H](O)[C@@H](O)[C@H](O)O[C@@H]2CO)[C@H](O)[C@@H](O)[C@@H]1O [D-cellobiose]
Small sample (50 mg) DSC
Conditions	molar heat capacity at constant pressure [J/K/mol]
288.15 K	407.8
293.15 K	431
298.15 K	436.1
303.15 K	445
308.15 K	443.1
313.15 K	446.9
318.15 K	448.7
323.15 K	463.2
328.15 K	463.5
333.15 K	473.1
338.15 K	481.1
343.15 K	490.7
348.15 K	503.2
353.15 K	515.8
358.15 K	534.8

O=C[C@@H](O)[C@@H](O)[C@H](O)[C@H](O)CO [D-mannose]
Small sample (50 mg) DSC
Conditions	molar heat capacity at constant pressure [J/K/mol]
288.15 K	188.7
293.15 K	200.7
298.15 K	206.6
303.15 K	215
308.15 K	223.3
313.15 K	228.2
318.15 K	231.6
323.15 K	234.5
328.15 K	236.5
333.15 K	242.1
338.15 K	245.2
343.15 K	249
348.15 K	252.4
353.15 K	254.1
358.15 K	260.2
